Test results published in PubChem BioAssay (NCI).
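How tested: cells in 96-well plates exposed to compound for 48 hours at five concentrations. TGI is the concentration that stops growth completely.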

Experiments:
Assay in all cases: NCI tumour cell line growth inhibition, 48 h
A498 renal = tested on: A498 renal
HCC-2998 colon = tested on: HCC-2998 colon
HCT-15 colon = tested on: HCT-15 colon
HOP-62 NSCLC = tested on: HOP-62 NSCLC
HT29 colon = tested on: HT29 colon
IGROV1 ovarian = tested on: IGROV1 ovarian
M14 melanoma = tested on: M14 melanoma
MALME-3M melanoma = tested on: MALME-3M melanoma
MCF7 breast = tested on: MCF7 breast
MDA-MB-231 breast = tested on: MDA-MB-231 breast
NCI-H522 lung = tested on: NCI-H522 lung
OVCAR-5 ovarian = tested on: OVCAR-5 ovarian
OVCAR-8 ovarian = tested on: OVCAR-8 ovarian
SR leukemia = tested on: SR leukemia
U251 CNS = tested on: U251 CNS
UACC-257 melanoma = tested on: UACC-257 melanoma
UACC-62 melanoma = tested on: UACC-62 melanoma
SF-268 CNS = tested on: SF-268 CNS
UO-31 renal = tested on: UO-31 renal

| Structure (SMILES) | TGI (A498 renal) | TGI (HCC-2998 colon) | TGI (HCT-15 colon) | TGI (HOP-62 NSCLC) | TGI (HT29 colon) | TGI (IGROV1 ovarian) | TGI (M14 melanoma) | TGI (MALME-3M melanoma) | TGI (MCF7 breast) | TGI (MDA-MB-231 breast) | TGI (NCI-H522 lung) | TGI (OVCAR-5 ovarian) | TGI (OVCAR-8 ovarian) | TGI (SR leukemia) | TGI (U251 CNS) | TGI (UACC-257 melanoma) | TGI (UACC-62 melanoma) | TGI (SF-268 CNS) | TGI (UO-31 renal) |
| --- | --- | --- | --- | --- | --- | --- | --- | --- | --- | --- | --- | --- | --- | --- | --- | --- | --- | --- | --- |
| COC(=O)C(COC(=O)/C=C/c1ccc(OC(C)=O)c(OC(C)=O)c1)NC(=O)/C=C/c1ccc(OC(C)=O)c(OC(C)=O)c1 (stereo unspecified) | > 100 µM | 47.3 µM | > 100 µM | 80.4 µM | 48 µM | > 100 µM | 39.5 µM | 32 µM | > 100 µM | 40.1 µM | 37.8 µM | > 100 µM | > 100 µM | > 100 µM | > 100 µM | > 100 µM | 35.1 µM |  |  |
| O=c1cc(N=Nc2ccc(Cl)c(Cl)c2)[nH]c(=O)[nH]1 | 28.8 µM | 6.35 µM | 3.31 µM | 19.2 µM | 3.13 µM | 4.31 µM | 4.08 µM | 4.53 µM | 3.99 µM | 3.38 µM | 2.81 µM | 11.2 µM | 4.89 µM | 1.54 µM | 3.65 µM | 6.15 µM | 4.61 µM | 7.57 µM | 4.93 µM |
| CCN(CCCl)c1cc(CN(C)C)cc(NC(=O)C23CCC(C(=O)Nc4cc(CN(C)C)cc(N(CC)CCCl)c4)(CC2)CC3)c1 | 20.2 µM | 2.73 µM | 26.4 µM | 2.76 µM | 1.95 µM | 3.28 µM | 14.8 µM | 3.21 µM | 2.01 µM | 26.6 µM | 1.47 µM | 10.4 µM | 3.16 µM | 24.2 µM | 11 µM | 15.5 µM | 4.18 µM | 16 µM | 30.9 µM |
| OC(c1ccc2c(c1)OCO2)c1ccc2c(c1)OCO2 | > 100 µM | > 100 µM | > 100 µM | > 100 µM | > 100 µM | > 100 µM | > 100 µM | > 100 µM | > 100 µM | > 100 µM | > 100 µM | > 100 µM | > 100 µM | > 100 µM | > 100 µM | > 100 µM | > 100 µM | > 100 µM | > 100 µM |
| O=C(NC(Cc1cnc[nH]1)C(=O)N1CCCC1)C1CCCC1 (stereo unspecified) | > 100 µM | > 100 µM | > 100 µM | > 100 µM | > 100 µM | > 100 µM | > 100 µM | > 100 µM | > 100 µM | > 100 µM | > 100 µM | > 100 µM | > 100 µM | > 100 µM | > 100 µM |  | > 100 µM |  | > 100 µM |
| C[N+](C)(C)CC(=O)N/N=C(\C(=O)NC1=C(Cl)C(=O)c2ccccc2C1=O)C(C#N)c1nc(-c2ccc([N+](=O)[O-])cc2)cs1 (stereo unspecified) | 33.3 µM | 30.5 µM | 18.8 µM | 34.4 µM | 33.6 µM | 18.4 µM | 8.65 µM | 3.97 µM | 22.3 µM | 39.3 µM | 19.2 µM | 26.3 µM | 47.6 µM | 52.5 µM | 26.4 µM | 9.11 µM | 9.27 µM | 38.4 µM | 31 µM |
| COc1cc2c(cc1O)C1(Cc3ccc4c(c3C1=O)OCO4)N(C)CC2 (stereo unspecified) | > 100 µM | > 100 µM | > 100 µM | > 100 µM | > 100 µM | > 100 µM | > 100 µM | > 100 µM | > 100 µM | > 100 µM | > 100 µM | > 100 µM | > 100 µM | > 100 µM | > 100 µM | > 100 µM | > 100 µM | > 100 µM | > 100 µM |
| N=CN=CC(=S)O[C@@H]1C(=O)N2CCC[C@@]23CCCC[C@@H]13 | > 12.5 µM | > 12.5 µM | > 12.5 µM | > 12.5 µM | > 12.5 µM | > 12.5 µM | > 12.5 µM | > 12.5 µM | > 12.5 µM | > 12.5 µM | > 12.5 µM | > 12.5 µM | > 12.5 µM | > 12.5 µM | > 12.5 µM | > 12.5 µM | > 12.5 µM | > 12.5 µM | > 12.5 µM |
| Cc1ccnc2[nH]c(-c3ccc(F)cc3)cc(=O)c12 | 97.9 µM | > 100 µM | > 100 µM | > 100 µM | > 100 µM | > 100 µM | > 46.4 µM | > 100 µM | > 100 µM | > 100 µM | > 66.8 µM | > 100 µM | > 100 µM | 25.9 µM | > 100 µM | > 100 µM | > 100 µM | > 100 µM | > 100 µM |
| CSC1=NNC(SC)=NN1 | > 1 µM | > 1 µM | 0.307 µM | 0.398 µM | 0.316 µM | 0.302 µM | 0.335 µM | 0.289 µM | 0.396 µM | 0.458 µM | 0.555 µM | 0.324 µM | 0.812 µM | 0.0483 µM | 0.319 µM | 0.258 µM | 0.29 µM | 0.351 µM | 0.328 µM |
